These results are taken from US20250195504A1, “NALTREXAMINE DERIVATIVES BEARING 5-MEMBER HETEROCYCLIC RING SYSTEMS AND OPIOID RECEPTOR MODULATORS” (VIRGINIA COMMONWEALTH UNIVERSITY, priority 2022, published 2025).

Where a name gives a salt, the structure may show the parent alone. Read-outs that look alike come from different tables or passages of the source. Bounds are passed on as bounds.

One data set has as its target MOR (Mus musculus, UniProt P42866). Nature of the data set: MOR [35S]GTPγS functional assay (MOR-CHO membranes). Format: biochemical. The arrangement: expressed in transfected cells; host or cells: CHO. Particulars: Tables A, B. On the procedure:
The [^35S]GTPγS functional assay was conducted to determine the efficacy of the compounds at the MOR. […] The Bradford protein assay was utilized to determine and adjust the concentration of protein required for the assay. Nonspecific binding was determined with 20 μM unlabeled GTPγS. Furthermore, 3 μM DAMGO was included in the assay as the maximally effective concentration of a full agonist for the MOR. After incubation, the bound radioactive ligand was separated from the free radioligand by filtration through a GF/B glass fiber filter paper and rinsed three times with ice-cold wash buffer (50 mM Tris-HCl, pH 7.2) using the Brandel harvester. Bound radioactivity was determined by liquid scintillation counting. All assays were determined in duplicate and repeated at least three times. Net stimulated [^35S]GTPγS binding was defined as agonist-stimulated minus basal binding in the absence of agonist. Percent of DAMGO-stimulated [^35S]GTPγS binding was defined as (net-stimulated binding by ligand/net-stimulated binding by 3 μM DAMGO)×100%.
Results were reported as mean values ±SEM.
The [^35S]-GTPγS binding assay was carried out as well to determine the functionality on the MOR of each compound. […] The [^35S]GTPγS functional assay was conducted to determine the efficacy of the compounds at the MOR, KOR and DOR. […] The Bradford protein assay was utilized to determine and adjust the concentration of protein required for the assay. Nonspecific binding was determined with 20 μM unlabeled GTPγS. Furthermore, 3 μM DAMGO/U50488H/SNC80 was included in the assay as the maximally effective concentration of a full agonist for the MOR/KOR/DOR. After incubation, the bound radioactive ligand was separated from the free radioligand by filtration through a GF/B glass fiber filter paper using a Brandel harvester. Bound radioactivity was determined by liquid scintillation counting. All assays were determined in duplicate and repeated at least three times. Net stimulated [^35S]GTPγS binding was defined as agonist-stimulated minus basal binding in the absence of agonist. Percent of DAMGO/U50488H/SNC80 stimulated [^35S]GTPγS binding was defined as (net-stimulated binding by ligand/net-stimulated binding by 3 μM DAMGO U50488H/SNC80)×100%.
In general terms: GTPγS is a poorly hydrolysed GTP analogue; its binding reports G protein activation.

A further data set deals with T1, hM4 (Homo sapiens, UniProt P08173).
T1 sequence (P08173 1-479): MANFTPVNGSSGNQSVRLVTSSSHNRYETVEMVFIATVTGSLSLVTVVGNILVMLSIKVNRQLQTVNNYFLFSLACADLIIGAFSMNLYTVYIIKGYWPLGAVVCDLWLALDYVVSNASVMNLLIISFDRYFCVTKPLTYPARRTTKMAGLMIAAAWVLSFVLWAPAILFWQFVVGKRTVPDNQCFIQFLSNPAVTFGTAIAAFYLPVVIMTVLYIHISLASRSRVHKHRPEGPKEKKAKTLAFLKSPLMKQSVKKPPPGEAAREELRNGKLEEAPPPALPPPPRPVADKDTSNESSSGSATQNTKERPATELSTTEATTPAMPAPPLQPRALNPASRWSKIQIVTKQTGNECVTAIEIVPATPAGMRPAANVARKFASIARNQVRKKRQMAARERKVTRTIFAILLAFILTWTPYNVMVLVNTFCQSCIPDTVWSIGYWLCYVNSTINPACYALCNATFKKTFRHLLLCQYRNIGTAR
Nature of the data set: side effect profiling, hM4. It is filed as binding. Particulars: for hM4 binding: at 10 uM.

The target in a further data set is CYP2C19 (Homo sapiens, UniProt P33261). Nature of the data set: CYP450 enzyme testing, CYP2C19.
Chain of CYP2C19 (P33261 whole entry): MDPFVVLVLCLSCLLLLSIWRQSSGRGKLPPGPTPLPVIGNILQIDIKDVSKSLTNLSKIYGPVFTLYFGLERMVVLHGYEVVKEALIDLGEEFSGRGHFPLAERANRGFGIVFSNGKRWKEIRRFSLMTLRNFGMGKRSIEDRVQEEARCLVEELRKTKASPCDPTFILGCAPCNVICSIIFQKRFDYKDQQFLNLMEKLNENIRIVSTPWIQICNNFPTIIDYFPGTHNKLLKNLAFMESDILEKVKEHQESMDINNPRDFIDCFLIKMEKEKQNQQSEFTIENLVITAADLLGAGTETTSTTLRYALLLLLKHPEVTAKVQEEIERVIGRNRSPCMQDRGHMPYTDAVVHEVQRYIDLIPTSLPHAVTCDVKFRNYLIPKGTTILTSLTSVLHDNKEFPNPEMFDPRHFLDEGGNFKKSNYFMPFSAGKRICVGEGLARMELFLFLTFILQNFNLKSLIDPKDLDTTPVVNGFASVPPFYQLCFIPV
Data set [1] can be described thus: Metabolic Stability (half-life), human.
Another data set can be described thus: solubility. Particulars: Tables A, B.
A short description of data set [2]: Protein Binding (plasma), human.
Another data set addresses T2, DOR (Homo sapiens, UniProt P41143).
T2 construct: expressed in transfected cells; host or cells: CHO
Nature of the data set: DOR [35S]GTPγS binding assay. It is filed as biochemical. Conditions: Tables A, B. On the procedure:
(§1) The [^35S]GTPγS functional assay was conducted to determine the efficacy of the compounds at the MOR, KOR and DOR. […] The Bradford protein assay was utilized to determine and adjust the concentration of protein required for the assay. Nonspecific binding was determined with 20 μM unlabeled GTPγS. Furthermore, 3 μM DAMGO/U50488H/SNC80 was included in the assay as the maximally effective concentration of a full agonist for the MOR/KOR/DOR. After incubation, the bound radioactive ligand was separated from the free radioligand by filtration through a GF/B glass fiber filter paper using a Brandel harvester. Bound radioactivity was determined by liquid scintillation counting. All assays were determined in duplicate and repeated at least three times. Net stimulated [^35S]GTPγS binding was defined as agonist-stimulated minus basal binding in the absence of agonist. Percent of DAMGO/U50488H/SNC80 stimulated [^35S]GTPγS binding was defined as (net-stimulated binding by ligand/net-stimulated binding by 3 μM DAMGO U50488H/SNC80)×100%.

In a further data set the target is KOR (Mus musculus, UniProt P33534). Nature of the data set: KOR [35S]GTPγS binding assay. Format: biochemical. Also noted: expressed in transfected cells; host or cells: CHO. Conditions: for Emax: read-out: 35S-GTP[γS]-Binding KOR Efficacy (% max of U50, 488H). Here is the method:
as §1

Data set [3] can be described thus: Metabolic Stability (half-life), rat.
For another data set, the target named is hERG channel (Homo sapiens, UniProt Q12809). Nature of the data set: hERG channel testing. In general terms: The hERG channel carries a current that helps repolarise heart muscle cells.
Chain of hERG channel (Q12809 whole entry): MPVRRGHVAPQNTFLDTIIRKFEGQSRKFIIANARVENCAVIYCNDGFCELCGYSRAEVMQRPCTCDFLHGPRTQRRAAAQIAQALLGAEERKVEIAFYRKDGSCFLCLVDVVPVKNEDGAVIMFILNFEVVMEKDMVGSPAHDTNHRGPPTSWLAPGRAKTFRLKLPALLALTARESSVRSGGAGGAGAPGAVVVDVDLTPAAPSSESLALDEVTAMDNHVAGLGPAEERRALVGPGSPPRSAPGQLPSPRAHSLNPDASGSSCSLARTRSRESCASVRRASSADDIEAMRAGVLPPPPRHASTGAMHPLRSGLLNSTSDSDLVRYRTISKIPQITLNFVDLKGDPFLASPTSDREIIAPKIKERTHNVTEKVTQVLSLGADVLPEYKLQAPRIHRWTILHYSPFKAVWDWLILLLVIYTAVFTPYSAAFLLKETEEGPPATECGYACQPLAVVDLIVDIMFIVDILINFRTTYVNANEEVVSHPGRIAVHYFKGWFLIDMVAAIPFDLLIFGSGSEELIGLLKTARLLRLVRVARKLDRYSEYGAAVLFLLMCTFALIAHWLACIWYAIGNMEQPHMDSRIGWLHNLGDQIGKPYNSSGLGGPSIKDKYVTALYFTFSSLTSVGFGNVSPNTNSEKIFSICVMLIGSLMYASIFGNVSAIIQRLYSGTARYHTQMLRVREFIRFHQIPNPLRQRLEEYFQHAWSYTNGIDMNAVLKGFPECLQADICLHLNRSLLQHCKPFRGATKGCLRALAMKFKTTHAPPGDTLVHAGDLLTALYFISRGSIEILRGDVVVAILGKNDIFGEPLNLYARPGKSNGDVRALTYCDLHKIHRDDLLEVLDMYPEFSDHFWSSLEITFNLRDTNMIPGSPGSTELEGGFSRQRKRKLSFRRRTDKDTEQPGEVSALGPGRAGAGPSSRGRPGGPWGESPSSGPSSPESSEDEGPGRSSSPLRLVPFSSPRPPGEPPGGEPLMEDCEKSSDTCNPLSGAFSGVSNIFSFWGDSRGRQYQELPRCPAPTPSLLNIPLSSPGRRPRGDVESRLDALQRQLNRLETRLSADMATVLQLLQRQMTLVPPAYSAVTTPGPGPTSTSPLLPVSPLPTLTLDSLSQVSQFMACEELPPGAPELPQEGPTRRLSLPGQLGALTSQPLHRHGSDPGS
Data set [4] in a line: In vivo Bioavailability Foral. Particulars: po.
A short description of data set [5]: Protein Binding (plasma), rat.
Another data set concerns the target CYP2D6 (Homo sapiens, UniProt P10635). Nature of the data set: CYP450 enzyme testing, CYP2D6.

Chain of CYP2D6 (P10635 whole entry): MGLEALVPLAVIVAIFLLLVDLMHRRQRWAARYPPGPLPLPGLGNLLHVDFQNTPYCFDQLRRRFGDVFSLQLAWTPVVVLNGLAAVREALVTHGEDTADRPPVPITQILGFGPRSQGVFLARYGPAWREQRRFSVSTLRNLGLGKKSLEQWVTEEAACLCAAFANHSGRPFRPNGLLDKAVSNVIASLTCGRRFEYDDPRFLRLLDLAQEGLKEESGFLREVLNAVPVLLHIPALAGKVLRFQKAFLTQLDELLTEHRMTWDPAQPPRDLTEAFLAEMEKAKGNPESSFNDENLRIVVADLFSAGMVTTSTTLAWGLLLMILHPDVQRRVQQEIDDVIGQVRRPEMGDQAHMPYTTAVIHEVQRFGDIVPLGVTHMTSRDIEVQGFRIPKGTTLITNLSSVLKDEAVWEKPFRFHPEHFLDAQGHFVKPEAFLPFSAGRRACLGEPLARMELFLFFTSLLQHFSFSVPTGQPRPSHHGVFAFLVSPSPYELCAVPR
Chain of KOR (P33534 whole entry): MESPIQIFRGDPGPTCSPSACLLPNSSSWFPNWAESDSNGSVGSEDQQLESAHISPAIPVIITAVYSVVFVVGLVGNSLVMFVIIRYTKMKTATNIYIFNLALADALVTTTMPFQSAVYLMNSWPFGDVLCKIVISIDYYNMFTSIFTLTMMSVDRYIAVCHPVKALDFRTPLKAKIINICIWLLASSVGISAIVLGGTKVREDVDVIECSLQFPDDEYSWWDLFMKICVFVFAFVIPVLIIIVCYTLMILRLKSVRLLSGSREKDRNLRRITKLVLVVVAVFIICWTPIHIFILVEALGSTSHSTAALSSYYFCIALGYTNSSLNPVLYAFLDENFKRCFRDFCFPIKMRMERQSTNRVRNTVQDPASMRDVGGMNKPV
Chain of MOR (P42866 whole entry): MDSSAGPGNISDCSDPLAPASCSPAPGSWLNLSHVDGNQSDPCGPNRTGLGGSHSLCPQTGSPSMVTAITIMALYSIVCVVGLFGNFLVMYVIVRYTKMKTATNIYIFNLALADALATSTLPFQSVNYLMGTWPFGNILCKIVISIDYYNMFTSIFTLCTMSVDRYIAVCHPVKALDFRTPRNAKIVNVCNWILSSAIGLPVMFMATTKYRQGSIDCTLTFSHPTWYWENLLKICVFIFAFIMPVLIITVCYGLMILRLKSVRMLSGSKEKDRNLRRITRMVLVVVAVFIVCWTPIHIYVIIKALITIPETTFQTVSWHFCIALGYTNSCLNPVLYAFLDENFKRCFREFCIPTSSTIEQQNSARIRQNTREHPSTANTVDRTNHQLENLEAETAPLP
T2 sequence (P41143 whole entry): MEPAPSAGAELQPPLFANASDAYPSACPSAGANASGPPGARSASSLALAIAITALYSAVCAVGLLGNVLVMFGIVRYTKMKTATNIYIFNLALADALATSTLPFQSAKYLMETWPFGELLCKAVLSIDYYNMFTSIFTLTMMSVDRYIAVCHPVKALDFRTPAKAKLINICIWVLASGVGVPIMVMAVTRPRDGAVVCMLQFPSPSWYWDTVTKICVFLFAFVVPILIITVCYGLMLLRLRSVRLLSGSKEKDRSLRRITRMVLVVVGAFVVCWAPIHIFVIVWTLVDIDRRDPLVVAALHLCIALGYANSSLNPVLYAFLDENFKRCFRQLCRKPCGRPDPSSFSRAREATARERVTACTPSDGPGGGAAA

As a reminder, the EC50 is the concentration at which the effect is half-maximal. What is called Ki is a measure of affinity in units of concentration, obtained from inhibition or displacement. A lower Ki goes with a stronger hold on the target. What is called half-life is how long it takes for the measured level to halve. By fraction unbound is commonly meant the share of the substance not bound to proteins or other matrix. A low value points to extensive binding. By bioavailability is commonly meant the share of a dose that reaches the circulation, judged against a reference dose that is usually intravenous. Lower therefore signals poor availability. `O=C(N[C@H]1CC[C@@]2(O)[C@H]3Cc4ccc(O)c5c4[C@@]2(CCN3CC2CC2)[C@H]1O5)c1cccs1` [Example 1 compound 25, 17-Cyclopropylmethyl-3,14β-dihydroxy-4,5α-epoxy-6α-(2′-thienylcarboxamido)morphinan hydrochloride] had a concentration giving a half-maximal response (EC50) on MOR (35S-GTP[γS]-Binding MOR Potency EC50, nM) of 0.49 ± 0.09 nM. Besides, the “35S-GTP[γS]-Binding MOR Efficacy (% max of DAMGO)” value at MOR stood at 21.81 ± 6.17%. Also, the inhibition constant (Ki) at hM4 worked out at 4900 nM. Moreover, the hM4 binding at hM4 was 61%. Besides, on CYP2C19, the CYP2C19 inhibition result is recorded as “Only CYP2C19 inhibition (~3 uM)”. For the same molecule, the half-life in data set [1] and in [3] was greater than 1 h each time. Moreover, the Solubility entry in “solubility” is on record as “Solubility: DMSO, H2O”. Also, in “AMES testing”, the AMES testing result was “No toxicity shown”. Besides, the fraction unbound in data set [2] was 0.63; in [5], 0.36. Further, at DOR, the “35S-GTP[γS]-Binding DOR Efficacy (% max of SNC80)” value came out at 48.58 ± 3.41%. Further, the Emax at KOR stood at 50.6 ± 0.95%. Further, the “hERG channel testing (Eurofins)” value on hERG channel was 2.5 µM (Eurofins). The molecule also yielded a bioavailability in data set [4] of 19%.

With `O=C(N[C@H]1CCC2(O)C3Cc4ccc(O)c5c4[C@@]2(CCN3CC2CC2)[C@H]1O5)c1ccc[nH]1` (stereo partly drawn) [Example 1 compound 1, 17-Cyclopropylmethyl-3,14β-dihydroxy-4,5α-epoxy-6a-[(2′-pyrrolyl)carboxamido]morphinan hydrochloride], the “35S-GTP[γS]-Binding MOR Efficacy (% max of DAMGO)” value on MOR is 12.11 ± 2.64%. Moreover, the “CYP2C19 inhibition (in words)” value on CYP2C19 (human) is “Only moderate at CYP2D6 and CYP2C19”. Also, the half-life in [1] and in data set [3] was greater than 1 h throughout. The free fraction (fraction unbound) in data set [2] and in data set [5] was 0.43 throughout. The “35S-GTP[γS]-Binding DOR Efficacy (% max of SNC80)” value at DOR was 50.94 ± 5.26%. The Emax on KOR was 43.4 ± 1.36%. At hERG channel, the “hERG channel testing (Eurofins)” value stood at 2.6 µM. For the same molecule, the “hERG channel testing (NIH)” value on hERG channel (NIH) was found to be 12.5 µM. This molecule also had a bioavailability in data set [4] of 59%. In addition, the “CYP2D6 inhibition (in words)” value at CYP2D6 (human) is “Only moderate at CYP2D6 and CYP2C19”.

With `O=C(N[C@H]1CC[C@@]2(O)[C@H]3Cc4ccc(O)c5c4[C@@]2(CCN3CC2CC2)[C@H]1O5)c1nccs1` [NTZ, 17-Cyclopropylmethyl-3,14β-dihydroxy-4,5α-epoxy-6α-(2′-thiazolylcarboxamido)morphinan hydrochloride], the “35S-GTP[γS]-Binding MOR Efficacy (% max of DAMGO)” value at MOR worked out at 11.29 ± 1.30%. The concentration for a half-maximal effect (EC50) on MOR (read-out: 35S-GTP[γS]-Binding MOR Potency EC50) stood at 2.16 ± 0.38 nM; at DOR (read-out: 35S-GTP[γS]-Binding DOR Potency EC50), 23.6 ± 4.29 nM; on KOR (Tables A, B, read-out: 35S-GTP[γS]-Binding KOR Potency EC50), 3.83 ± 0.62 nM. Moreover, the hM4 binding result on hM4 is “hM4 (67% at 10 uM)”. For the same molecule, the half-life in [1] and in data set [3] was greater than 1 h each time. Besides, the Solubility result in the data set “solubility” is listed as “Solubility: DMSO, H2O”. In “AMES testing”, the AMES testing entry is reported as “No toxicity shown”. The fraction unbound in [2] worked out at 0.56; in [5] it was 0.4. For the same molecule, the “35S-GTP[γS]-Binding DOR Efficacy (% max of SNC80)” value at DOR was 46.51 ± 2.17%. In addition, the Emax on KOR was found to be 23.5 ± 2.03%. Moreover, the “hERG channel testing (Eurofins)” value on hERG channel is 7.4 µM (Eurofins). Further, the “CYP2D6 inhibition (in words)” value on CYP2D6 (human) was “potent at CYP2D6 inhibition”.

For `O=C(N[C@H]1CC[C@@]2(O)[C@H]3Cc4ccc(O)c5c4[C@@]2(CCN3CC2CC2)[C@H]1O5)c1ccsc1` [Example 1 compound 31, 17-Cyclopropylmethyl-3,14β-dihydroxy-4,5α-epoxy-6α-(3′-thienylcarboxamido)morphinan hydrochloride], the “35S-GTP[γS]-Binding MOR Efficacy (% max of DAMGO)” value on MOR was found to be 30.66 ± 4.44%. For the same molecule, the hM4 binding result on hM4 is given as “hM4 (65% at 10 uM)”. In addition, the “CYP2C19 inhibition (in words)” value on CYP2C19 is “Only moderate at CYP2D6 and CYP2C19”. Further, the half-life was greater than 1 h in [1] and 0.733 h in [3]. Moreover, the Solubility entry in “solubility” is recorded as “Solubility: DMSO, H2O”. For the same molecule, the AMES testing entry in the data set “AMES testing” is on record as “No toxicity shown”. Besides, the values for the unbound share (fraction unbound) in [2] and in [5] were 0.4 and 0.44, respectively. Further, the “35S-GTP[γS]-Binding DOR Efficacy (% max of SNC80)” value on DOR was 58.5 ± 3.13%. The “hERG channel testing (Eurofins)” value at hERG channel was 1.3 µM (Eurofins). The molecule also yielded a bioavailability in data set [4] of 15%. For the same molecule, on CYP2D6, the “CYP2D6 inhibition (in words)” value was “Only moderate at CYP2D6 and CYP2C19”.
